Assay: GC-MS analysis of volatile components after light exposure
Assay type: physicochemical
Settings: after 5 d of light exposure
Description: Untreated ATVO, the physical mixture (10 mL ATVO, 10 mL distilled water, and 0.3 g MSTC mixed uniformly with a glass rod), and the MSTC-stabilized PE were each placed into flat weighing bottles (40 × 25 mm). The samples were stored in a light-stability chamber with a light intensity of 4500 ± 500 lx and a controlled temperature of 25 ± 0.5 °C. Aliquots were collected after 1, 3, and 5 days of light exposure. The physical mixture and PE groups were centrifuged (10,000 rpm, 10 min) to achieve phase separation prior to analysis. All assays were performed in triplicate, and the obtained samples were maintained at 4 °C until analyzed.Volatile oil retention rate (%) = Vt/V0 × 100%(2) The volatile components of ATVO were determined by gas chromatography-mass spectrometry (GC-MS) according to a previously reported method. Samples from each treatment group were prepared before analysis. Briefly, 100 μL of each volatile oil sample was transferred into a 10 mL volumetric flask. Then, 100 μL of n-docosane internal standard solution (10 mg·mL^−1) was added. The mixture was diluted to volume with n-hexane. […] It was then vortex-mixed and filtered through a 0.22 μm organic membrane filter. The filtrate was used for GC-MS analysis. […] Relative quantification was performed using n-docosane as the internal standard. […]

relative content of the component (PE group): well retained
relative content of the component (free ATVO (O) group implied): decreased to zero
SMILES: C=C/C(C)=C/CC=C(C)C [003779-61-1, (E)-3,7-dimethylocta-1,3,6-triene]

— publication PMC13415033, “Pickering Emulsion Stabilized by Chitosan-Modified Saigae Tataricae Cornu Particles for Improving the Oxidative Stability and In Vivo Pharmacokinetics of Acorus tatarinowii Schott Volatile Oil” (Pharmaceuticals, 2026)
